The values below come from publication PMC8860381 (Molecular Cell, 2022).

The target of data set [1] is T1, hSKI complex (hSKI-WT; hSKI2-hSKI3-hSKI8) (Homo sapiens, UniProt Q15477, E424Q).
T1 construct: gene SKIC2; full-length subunits co-expressed in Sf21 insect cells; 3C-cleavable 10xHis tag on TTC37 N-terminus, tag removed; with Superkiller complex protein 3 (tetratricopeptide repeat protein 37); Superkiller complex protein 8 (WD repeat-containing protein 61)
The data set is described as follows: pyruvate kinase/lactate dehydrogenase-coupled ATPase assay. In kind it is biochemical. The conditions noted are these: 10 μg/mL poly(U) RNA, 50 nM complex, 5 mM MgAc2, 50 mM KAc, pH 7.5, 37°C.

The target of data set [2] is T2, hSKI complex (hSKI-WT; hSKI2-hSKI3-hSKI8) (Homo sapiens, UniProt Q15477, V341G).
T2 construct: gene SKIC2; full-length subunits co-expressed in Sf21 insect cells; 3C-cleavable 10xHis tag on TTC37 N-terminus, tag removed; with Superkiller complex protein 3 (tetratricopeptide repeat protein 37); Superkiller complex protein 8 (WD repeat-containing protein 61)
Described as above. In kind it is biochemical. The conditions noted are these: 10 μg/mL poly(U) RNA, 50 nM complex, 5 mM MgAc2, 50 mM KAc, pH 7.5, 37°C.

The next data set addresses T3, hSKI-Δarch (Homo sapiens, UniProt Q15477).
T3 construct: gene SKIC2; Sf21 insect cells; 10xHis tag on TTC37 removed; with Superkiller complex protein 3 (tetratricopeptide repeat protein 37); Superkiller complex protein 8 (WD repeat-containing protein 61)
The description is as above. In kind it is biochemical. The conditions noted are these: 10 μg/mL poly(U) RNA, 50 nM complex, 5 mM MgAc2, 50 mM KAc, pH 7.5, 37°C. From the text:
pyruvate kinase/lactate dehydrogenase-coupled ATPase assay on hSKI-Δarch | removal of the hSKI2 arch domain led only to a minor increase in the ATPase activity

Data set [3] concerns Nc1ncnc2c1ncn2[C@@H]1O[C@H](COP(=O)(O)OP(=O)(O)OP(=O)(O)O)[C@@H](O)[C@H]1O. The data set is described as above. In kind it is biochemical, Homo sapiens. The conditions noted are these: 10 μg/mL poly(U) RNA, 50 nM complex, 5 mM MgAc2, 50 mM KAc, pH 7.5, 37°C.
The target of data set [4] is hEXO10c (hEXO9 core + hDIS3L D486N) (Homo sapiens, UniProt Q8TF46;Q9Y3B2;Q13868;Q9NQT5;Q9NPD3;Q9NQT4;Q5RKV6;Q15024;Q96B26;Q06265 …, D486N). Briefly: RNase protection (benzonase); hEXO10c alone, characteristic footprint, lane 1; Binding buffers not in material (Methods sections for RNase protection and cryo-EM sample preparation are empty); hSKI storage buffer 20 mM Hepes pH 7.5, 100 mM NaCl, 2 mM DTT. The conditions noted are these: protein: recombinant; tags: TwinStrep-3C on DIS3L N-terminus; copies: 1;1;1;1;1;1;1;1;1;1; label: 32P body-labelled (alpha-32P UTP); single strand.

`Nc1ncnc2c1ncn2[C@@H]1O[C@H](COP(=O)(O)OP(=O)(O)OP(=O)(O)O)[C@@H](O)[C@H]1O` [ATP]: the ATPase activity abolished entry in data set [1] is listed as “the ATPase activity of hSKI was abolished in the case of a mutant complex”. For the same molecule, the “inactive in ATPase assay” value in data set [2] is “V341G substitution (hSKI-THES) and indeed found that it is inactive in ATPase assays”. On hSKI-Δarch, the Michaelis constant (Km) came to 121 µM.
Take “hSKI complex (hSKI-WT; hSKI2-hSKI3-hSKI8) (Homo sapiens)”: in data set [3], the Km came to 149.4 µM and the catalytic constant (kcat) came out at 0.685 s⁻¹.

B1: GGGC(*UC)48 RNA (ssRNA)
RNA: GGGCUCUCUCUCUCUCUCUCUCUCUCUCUCUCUCUCUCUCUCUCUCUCUCUCUCUCUCUCUCUCUCUCUCUCUCUCUCUCUCUCUCUCUCUCUCUCUCUC
Take B1: in data set [4], the binding result is listed as “binds”.

The Km is the substrate concentration at which the rate is half of its maximum. As a reminder, the kcat is the maximal rate divided by the concentration of active sites.
